The values that follow come from patent US20220389003A1, “4-SUBSTITUTED INDOLE AND INDAZOLE SULFONAMIDO DERIVATIVES AS PARG INHIBITORS” (IDEAYA BIOSCIENCES, INC., priority 2019, published 2022).

Test [1] has as its target T1, PARG (Homo sapiens, UniProt Q86W56). Put plainly: Inhibition of PARG enzymatic assay (TR-FRET enzymatic IC50 assay). Conditions: hPARG 250 pM, biotinylated-PARylated PARP substrate 30 nM. In kind it is biochemical. The arrangement: purchased Peak Proteins. Here is the method: PARG enzyme was incubated with compound or vehicle (DMSO) and the biotinylated-PARylated PARP substrate in a microtiter plate. After adding detection antibody and streptavidin-europium, and then incubating, the plate was read for fluorescence intensity. The low control (DMSO) with low fluorescence intensity represents no inhibition of enzymatic reaction while the high control (no enzyme) with high fluorescence intensity represents full inhibition of enzymatic reaction.
• PARG • hPARG: 250 pM, His-tagged, Peak Proteins, 0.96 mg/mL (8.58 μM) • Substrate: 30 nM • Reaction time: 70 minutes • Substrate: hPARP1, His- and TEV-tagged, Peak Proteins, 14 μM • Detection Antibody: anti-His monoclonal antibody-ULight, Perkin Elmer catalog #TRF0105-M • Streptavidin-Europium: Perkin Elmer catalog #AD0062 • Assay buffer: 50 mM Tris-HCl pH 7.4, 50 mM KCl, 3 mM EDTA, 0.4 mM EGTA, 1 mM DTT, 0.01% Tween 20, 0.01% BSA • Temperature: 23° C. • Total volume: 20 μL
• 0% inhibition control: DMSO • 100% inhibition control: No enzyme
• 1. Transfer 5 μL of 3× final concentration of test compounds or DMSO to the appropriate wells of a microtiter plate. • 2. Centrifuge the plate at 1000 rpm for 1 minute. • 3. Transfer 5 μL of 3× final concentration of enzyme in assay buffer or assay buffer alone to the appropriate wells. • 4. Centrifuge the plate at 1000 rpm for 1 minute. • 5. Incubate the plate at room temperature for 1 hour. • 6. Transfer 5 μL of 3× substrate in assay buffer to all the test wells. • 7. Centrifuge the plate at 1000 rpm for 1 minute. • 8. Incubate the plate at room temperature for 10 minutes. • 9. Transfer 5 μL of 3× mixture of detection antibody and streptavidin-europium in assay buffer to all the test wells. • 10. Centrifuge the plate at 1000 rpm for 1 minute. • 11. Incubate the plate at room temperature for 1 hour. • 12. Read the plate on a plate reader (e.g., Infinite M1000).
A general note: TR-FRET usually uses a lanthanide donor and a delayed reading to cut background.

Test [2] concerns the target T1, PARG. Put plainly: Inhibition of PARG cellular assay (PAR foci in HeLa cells after MMS). In kind it is cell-based. More on the design: endogenous in cells; host or cells: HeLa. Conditions: compound 1 h then MMS 1 h. The procedure:
The ability of the compounds disclosed herein to inhibit PARG was determined as described below. Briefly, after treating HeLa cells with the compounds of the disclosure for 1 h, followed by treatment with DNA alkylating agent methylmethanesulfonate (MMS) for an additional 1 h, the cells were fixed in 3.7% formaldehyde. The cells were permeabilized in 0.5% Triton-X100, blocked in 5% goat serum, and incubated with mouse monoclonal antibody against poly (ADP) ribose (PAR) polymer overnight at 4° C. The cells were washed and incubated with an Alexafluor 488-linked secondary antibody together with a nuclear stain (Hoechst 33342) for an hour at room temperature. After washing, images of the cells were captured and analyzed on a high content imaging microscope and software. Two measurement of PAR chain were quantified with the mean intensity over background of the nuclear foci (fluorescent signal at 488 nm range 0.3-2.0 μm foci) quantified as PAR foci (PAR Foci IC50). The cells with a PAR foci signal >1.3 was considered as positive (PAR % positive IC50), and the percentage positive cells are quantified.

pIC50: −log10 of the molar value.

As usually defined, the pIC50 is −log10 of the IC50, conventionally taken in molar units. A high value points to a small IC50.

T1 sequence (Q86W56 whole entry): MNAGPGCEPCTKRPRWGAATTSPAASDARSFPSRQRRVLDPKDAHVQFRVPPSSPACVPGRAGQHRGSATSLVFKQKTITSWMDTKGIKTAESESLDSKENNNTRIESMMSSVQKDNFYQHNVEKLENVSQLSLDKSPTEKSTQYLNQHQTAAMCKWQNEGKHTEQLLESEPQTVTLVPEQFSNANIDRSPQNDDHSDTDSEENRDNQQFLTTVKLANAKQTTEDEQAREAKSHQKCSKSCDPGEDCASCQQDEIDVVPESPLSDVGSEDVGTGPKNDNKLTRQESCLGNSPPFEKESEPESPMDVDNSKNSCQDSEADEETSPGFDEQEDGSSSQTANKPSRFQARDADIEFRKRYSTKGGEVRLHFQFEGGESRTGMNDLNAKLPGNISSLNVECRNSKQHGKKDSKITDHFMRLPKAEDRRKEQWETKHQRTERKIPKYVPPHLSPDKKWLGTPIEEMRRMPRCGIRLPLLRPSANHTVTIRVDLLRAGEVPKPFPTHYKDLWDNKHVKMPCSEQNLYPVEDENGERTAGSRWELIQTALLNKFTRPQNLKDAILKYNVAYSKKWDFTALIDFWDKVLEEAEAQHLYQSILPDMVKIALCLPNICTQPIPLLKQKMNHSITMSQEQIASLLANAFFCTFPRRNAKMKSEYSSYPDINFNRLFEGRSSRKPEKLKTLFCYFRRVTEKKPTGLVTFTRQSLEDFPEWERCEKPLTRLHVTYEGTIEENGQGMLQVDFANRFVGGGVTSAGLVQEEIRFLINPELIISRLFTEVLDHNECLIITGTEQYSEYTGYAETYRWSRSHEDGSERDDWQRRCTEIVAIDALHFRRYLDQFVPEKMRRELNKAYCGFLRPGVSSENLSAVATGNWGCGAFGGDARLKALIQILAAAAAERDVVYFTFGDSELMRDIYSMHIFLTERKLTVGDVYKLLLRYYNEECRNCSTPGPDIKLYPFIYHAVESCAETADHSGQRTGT

As for `N#CC1(NS(=O)(=O)c2cc(-c3c[nH]cn3)c3cnn(-c4nnc(C(F)F)s4)c3c2)CC1` [Example 9, 1-[({1-[5-(difluoromethyl)(1,3,4-thiadiazol-2-yl)]-4-imidazol-4-yl-1H-indazol-6-yl}sulfonyl)amino]cyclopropanecarbonitrile], the pIC50 is 6.00 to 6.52 on PARG [1] and 5.00 to 6.00 against PARG [2].

As for `N#CC1(NS(=O)(=O)c2cc(-c3ccnnc3)c3cnn(-c4nnc(C(F)F)s4)c3c2)CC1` [Example 10, 1-[({1-[5-(difluoromethyl)(1,3,4-thiadiazol-2-yl)]-4-pyridazin-4-yl-1H-indazol-6-yl}sulfonyl)amino]cyclopropanecarbonitrile], the pIC50 against PARG [1] is 6.52 to 7.00; at PARG [2], 5.00 to 6.00.

As for `N#CC1(NS(=O)(=O)c2cc(-c3cccnn3)c3cnn(-c4nnc(C(F)F)s4)c3c2)CC1` [Example 11, 1-[({1-[5-(difluoromethyl)(1,3,4-thiadiazol-2-yl)]-4-pyridazin-3-yl-1H-indazol-6-yl}sulfonyl)amino]cyclopropanecarbonitrile], the negative logarithm of the IC50 (pIC50) is 6.52 to 7.00 on PARG [1] and 5.00 to 6.00 against PARG [2]. For the molecule `Cn1cnc(-c2cc(S(=O)(=O)NC3(C#N)CC3)cc3c2cnn3-c2nnc(C(F)F)s2)c1` [Example 12, 1-[({1-[5-(difluoromethyl)(1,3,4-thiadiazol-2-yl)]-4-(1-methylimidazol-4-yl)-1H-indazol-6-yl}sulfonyl)amino]cyclopropanecarbonitrile], the pIC50 on PARG [1] and on PARG [2] was 6.00 to 6.52 each time.

As to `N#CC1(NS(=O)(=O)c2cc(-c3cscn3)c3cnn(-c4nnc(C(F)F)s4)c3c2)CC1` [Example 13, 1-[({1-[5-(difluoromethyl)(1,3,4-thiadiazol-2-yl)]-4-(1,3-thiazol-4-yl)-1H-indazol-6-yl}sulfonyl)amino]cyclopropanecarbonitrile], the pIC50 against PARG [1] and against PARG [2] was 6.00 to 6.52 each time. `N#CC1(NS(=O)(=O)c2cc(-c3ccncc3)c3cnn(-c4nnc(C(F)F)s4)c3c2)CC1` [Example 16, 1-[({1-[5-(difluoromethyl)(1,3,4-thiadiazol-2-yl)]-4-(4-pyridyl)-1H-indazol-6-yl}sulfonyl)amino]cyclopropanecarbonitrile]: the values for the pIC50 against PARG [1] and against PARG [2] were 6.52 to 7.00 and 5.00 to 6.00, respectively. Taken in the same sequence, the figures for `N#CC1(NS(=O)(=O)c2cc(-c3cccnc3)c3cnn(-c4nnc(C(F)F)s4)c3c2)CC1` [Example 17, 1-[({1-[5-(difluoromethyl)(1,3,4-thiadiazol-2-yl)]-4-(3-pyridyl)-1H-indazol-6-yl}sulfonyl)amino]cyclopropanecarbonitrile] were 6.00 to 6.52 and 5.00 to 6.00.

Regarding `N#CC1(NS(=O)(=O)c2cc(-c3cnccn3)c3cnn(-c4nnc(C(F)F)s4)c3c2)CC1` [Example 18, 1-[({1-[5-(difluoromethyl)(1,3,4-thiadiazol-2-yl)]-4-pyrazin-2-yl-1H-indazol-6-yl}sulfonyl)amino]cyclopropanecarbonitrile], the pIC50 is 6.52 to 7.00 against PARG [1] and 5.00 to 6.00 against PARG [2].

Regarding `COc1cc(-c2cc(S(=O)(=O)NC3(C(N)=O)CC3)cc3c2cnn3-c2nnc(C(F)F)s2)ncn1` [Example 19, 1-[({1-[5-(difluoromethyl)(1,3,4-thiadiazol-2-yl)]-4-(6-methoxypyrimidin-4-yl)-1H-indazol-6-yl}sulfonyl)amino]cyclopropanecarboxamide], the negative logarithm of the IC50 (pIC50) against PARG [1] is 6.00 to 6.52; at PARG [2], 5.00 to 6.00. For the molecule `COc1nccc(-c2cc(S(=O)(=O)NC3(C(N)=O)CC3)cc3c2cnn3-c2nnc(C(F)F)s2)n1` [Example 20, 1-[({1-[5-(difluoromethyl)(1,3,4-thiadiazol-2-yl)]-4-(2-methoxypyrimidin-4-yl)-1H-indazol-6-yl}sulfonyl)amino]cyclopropanecarboxamide], the values for the pIC50 on PARG [1] and on PARG [2] were 6.00 to 6.52 and 5.00 to 6.00, respectively. Consider `COc1cc(-c2cc(S(=O)(=O)NC3(C#N)CC3)cc3c2cnn3-c2nnc(C(F)F)s2)ncn1` [Example 22, 1-[({1-[5-(difluoromethyl)(1,3,4-thiadiazol-2-yl)]-4-(6-methoxypyrimidin-4-yl)-1H-indazol-6-yl}sulfonyl)amino]cyclopropanecarbonitrile], for which, on PARG [2], the pIC50 was 6.00 to 6.52. On to `N#CC1(NS(=O)(=O)c2cc(N3CCC4(CCOC4)CC3)c3cnn(-c4nnc(C(F)F)s4)c3c2)CC1` [Example 29, 1-[({1-[5-(difluoromethyl)(1,3,4-thiadiazol-2-yl)]-4-(2-oxa-8-azaspiro[4.5]dec-8-yl)-1H-indazol-6-yl}sulfonyl)amino]cyclopropanecarbonitrile], for which the pIC50 is 6.52 to 7.00 on PARG [1] and 6.00 to 6.52 on PARG [2]. In the case of `N#CC1(NS(=O)(=O)c2cc(N3CCC4(CCOCC4)CC3)c3cnn(-c4nnc(C(F)F)s4)c3c2)CC1` [Example 30, 1-[({1-[5-(difluoromethyl)(1,3,4-thiadiazol-2-yl)]-4-(9-oxa-3-azaspiro[5.5]undec-3-yl)-1H-indazol-6-yl}sulfonyl)amino]cyclopropanecarbonitrile], the pIC50 was 6.00 to 6.52 against PARG [1] and 5.00 to 6.00 against PARG [2]. For the molecule `N#CC1(NS(=O)(=O)c2cc(N3CCCOCC3)c3cnn(-c4nnc(C(F)F)s4)c3c2)CC1` [Example 42, 1-[({1-[5-(difluoromethyl)(1,3,4-thiadiazol-2-yl)]-4-(1,4-oxazaperhydroepin-4-yl)-1H-indazol-6-yl}sulfonyl)amino]cyclopropanecarbonitrile], the pIC50 at PARG [1] is 5.00 to 6.00. The molecule `CN(C)C(=O)C1CN(c2cc(S(=O)(=O)NC3(C#N)CC3)cc3c2cnn3-c2nnc(C(F)F)s2)C1` [Example 55, [1-(1-[5-(difluoromethyl)(1,3,4-thiadiazol-2-yl)]-6-{[(cyanocyclopropyl)amino]sulfonyl}(1H-indazol-4-yl))azetidin-3-yl]-N,N-dimethylcarboxamide] showed a pIC50 at PARG [1] of 6.00 to 6.52. For `N#CC1(NS(=O)(=O)c2cc(N3CCN4C(=O)OC[C@@H]4C3)c3cnn(-c4nnc(C(F)F)s4)c3c2)CC1` [Example 62, 1-[({4-((1S)-7-oxo-8-oxa-3,6-diazabicyclo[4.3.0]non-3-yl)-1-[5-(difluoromethyl) (1,3,4-thiadiazol-2-yl)]-1H-indazol-6-yl}sulfonyl)amino]cyclopropanecarbonitrile], the pIC50 against PARG [1] was not below 7.00. Same read-out and setting: for `N#CC1(NS(=O)(=O)c2cc(N3CCCC4(COC4)C3)c3cnn(-c4nnc(C(F)F)s4)c3c2)CC1` [Example 65, 1-[({1-[5-(difluoromethyl)(1,3,4-thiadiazol-2-yl)]-4-(2-oxa-6-azaspiro[3.5]non-6-yl)-1H-indazol-6-yl}sulfonyl)amino]cyclopropanecarbonitrile] the value was 6.00 to 6.52; for `N#CC1(NS(=O)(=O)c2cc(N3CC4COCC(C3)N4)c3cnn(-c4nnc(C(F)F)s4)c3c2)CC1` [Example 70, 1-[({1-[5-(difluoromethyl)(1,3,4-thiadiazol-2-yl)]-4-(7-oxa-3,9-diazabicyclo-[3.3.1]non-3-yl)-1H-indazol-6-yl}sulfonyl)amino]cyclopropanecarbonitrile], 6.52 to 7.00. With `CN1Cc2cn(-c3cc(S(=O)(=O)NC4(C#N)CC4)cc4c3cnn4-c3nnc(C(F)F)s3)nc2C1` [Example 73, 1-[({1-[5-(difluoromethyl)(1,3,4-thiadiazol-2-yl)]-4-(5-methyl(3-pyrrolino[3,4-c]pyrazol-2-yl))-1H-indazol-6-yl}sulfonyl)amino]cyclopropanecarbonitrile], the pIC50 at PARG [1] was 6.52 to 7.00; against PARG [2], 5.00 to 6.00. `CN(C)C(=O)N1CCCN(c2cc(S(=O)(=O)NC3(C#N)CC3)cc3c2cnn3-c2nnc(C(F)F)s2)CC1` [Example 78, [4-(1-[5-(difluoromethyl)(1,3,4-thiadiazol-2-yl)]-6-{[(cyanocyclopropyl)amino]-sulfonyl}(1H-indazol-4-yl))(1,4-diazaperhydroepinyl)]-N,N-dimethylcarboxamide] had a negative-log IC50 (pIC50) at PARG [1] of 6.52 to 7.00.
